Assay results taken from PubChem BioAssay AID1259411 (Chemical Carcinogenesis Research Information System (CCRIS), 2018).
Active and inactive are the calls of the source. No rule for the calls is given here.

Test system: rodent carcinogenicity bioassays, tumor incidence
Assay: CCRIS carcinogenicity studies
Outline: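 Archive of carcinogenicity, mutagenicity, tumor promotion and tumor inhibition results drawn from journals, NCI reports and other sources, expert-reviewed; covers 1985-2011 and is no longer updated.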

c1ccc2c(c1)cc1ccc3cccc4ccc2c1c34 was tested, and the carcinogen call (Species: MOUSE, Strain/Sex: SWISS/FEMALE, Route: DERMAL, Dose: 0, 2.2, 6.6, 20 NMOL IN 50 µL ACETONE 2/WK FOR 48 WK (STUDY DURATION: 61 WK), Dose: 0, 2.2, 6.6, 20 NMOL IN 50 µL ACETONE 2/WK FOR 48 WK (STUDY DURATION: 61 WK), Tumor Site: Type of Lesion: SKIN: PAPILLOMA, SKIN: SQUAMOUS CELL CARCINOMA) was “active; positive”, the carcinogen call (Species: MOUSE, Strain/Sex: SWISS/FEMALE, Route: DERMAL, Dose: 0, 22.2, 66.6, 200 NMOL IN 50 µL ACETONE 2/WK FOR 48 WK (STUDY DURATION: 61 WK), Dose: 0, 22.2, 66.6, 200 NMOL IN 50 µL ACETONE 2/WK FOR 48 WK (STUDY DURATION: 61 WK), Tumor Site: Type of Lesion: SKIN: SQUAMOUS CELL CARCINOMA) was “active; positive” and the carcinogen call (Species: MOUSE, Strain/Sex: SWISS/FEMALE, Route: DERMAL, Dose: 0.01-0.5%, 3/WK, Tumor Site: Type of Lesion: INTEGUMENTARY SYSTEM (SKIN): CARCINOMA, PAPILLOMA) was “active; positive”. The carcinogen call (Species: MOUSE, Strain/Sex: SWISS/FEMALE, Route: DERMAL, Dose: 0.1-9 UG, 3/WK FOR < 700 D, Tumor Site: Type of Lesion: INTEGUMENTARY SYSTEM (SKIN)) was “active; positive”, the carcinogen call (Species: MOUSE, Strain/Sex: WILDTYPE/MALE, Route: GAVAGE, Dose: 0, 13, 39 MG/KG BW IN 0.1 ML SOY OIL 3/WK FOR 13 WK (STUDY DURATION: 291 D), Dose: 0, 13, 39 MG/KG BW IN 0.1 ML SOY OIL 3/WK FOR 13 WK (STUDY DURATION: 291 D), Tumor Site: Type of Lesion: LYMPHATIC SYSTEM: LYMPHOMA, FORESTOMACH: TUMOR) was “active; positive” and the carcinogen call (Species: Mouse, Strain/Sex: 129 x MF1 Gstp-null (14-15 males and females), Route: Intraperitoneal, Dose: 200 mg/kg, once, study duration 5 mo, Tumor Site: Type of Lesion: Lung: adenoma (incidence 71% vs 27% in controls, multiplicity 3.0 vs 0.3 in controls)) was “inactive; negative”. For the same compound, the carcinogen call (Species: Mouse, Strain/Sex: 129 x MF1 wild type (14-16 males and females), Route: Intraperitoneal, Dose: 200 mg/kg, once, study duration 5 mo, Tumor Site: Type of Lesion: Lung: adenoma (incidence 29% vs 25% in controls, multiplicity 0.4 vs 0.3 in controls)) was “inactive; negative”, the carcinogen call (Species: RABBIT, Route: DERMAL, Dose: 0.001-0.5%, 5/WK, Tumor Site: Type of Lesion: INTEGUMENTARY SYSTEM (SKIN)) was “active; positive” and the carcinogen call (Species: RABBIT, Route: DERMAL, Tumor Site: Type of Lesion: INTEGUMENTARY SYSTEM (SKIN): PAPILLOMA, CARCINOMA) was “active; positive”. The carcinogen call (Species: RAT, Route: INTRATRACHEAL, Dose: 0.0005-2.5 MG, 1/MO FOR 10 MO, OBSERVED 2 YR, Tumor Site: Type of Lesion: LUNG) was “active; positive”, the carcinogen call (Species: RAT, Route: SUBCUTANEOUS, Dose: 0.05, 0.1, 0.5, 1.0 MG, SINGLE DOSE, Tumor Site: Type of Lesion: INJECTION SITE) was “active; positive” and the carcinogen call (Species: RAT, Route: SUBCUTANEOUS, Tumor Site: Type of Lesion: INJECTION SITE) was “active; positive”. For the same compound, the carcinogen call (Species: RAT, Strain/Sex: F344/MALE, Route: LUNG IMPLANT, Dose: 0, 50, 100, 200 UG IN BEESWAX/TRICAPRYLIN INTO LEFT LUNG ONCE (STUDY DURATION: 100 WK), Dose: 0, 50, 100, 200 UG IN BEESWAX/TRICAPRYLIN INTO LEFT LUNG ONCE (STUDY DURATION: 100 WK), Tumor Site: Type of Lesion: LUNG: SQUAMOUS CELL CARCINOMA) was “active; positive”, the carcinogen call (Species: RAT, Strain/Sex: F344/MALE, Route: PULMONARY IMPLANT, Dose: 0, 50, 100, 200 UG IN 50 µL BEESWAX/TRICAPRYLIN IMPLANTED FOR UP TO 100 WK (STUDY DURATION: 100 WK), Dose: 0, 50, 100, 200 UG IN 50 µL BEESWAX/TRICAPRYLIN IMPLANTED FOR UP TO 100 WK (STUDY DURATION: 100 WK), Tumor Site: Type of Lesion: LUNG: TUMOR) was “active; positive” and the carcinogen call (Species: RAT, Strain/Sex: F344/MALE, Route: SUBCUTANEOUS IMPLANT, Dose: 0, 8, 40, 200, 1000 UG IN 50 µL BEESWAX/TRICAPRYLIN IMPLANTED FOR UP TO 45 WK (STUDY DURATION: 45 WK), Dose: 0, 8, 40, 200, 1000 UG IN 50 µL BEESWAX/TRICAPRYLIN IMPLANTED FOR UP TO 45 WK (STUDY DURATION: 45 WK), Tumor Site: Type of Lesion: IMPLANT SITE: TUMOR) was “active; positive”. For the same compound, the carcinogen call (Species: RAT, Strain/Sex: OSBORNE-MENDEL/FEMALE, Route: INTRAPULMONARY IMPLANT, Dose: 0, 0.03, 0.1, 0.3 MG IN BEESWAX AND TRIOCTANOIN IMPLANTED IN LUNG (STUDY DURATION: 141 WK), Dose: 0, 0.03, 0.1, 0.3 MG IN BEESWAX AND TRIOCTANOIN IMPLANTED IN LUNG (STUDY DURATION: 141 WK), Tumor Site: Type of Lesion: LUNG: CARCINOMA) was “active; positive”, the carcinogen call (Species: RAT, Strain/Sex: OSBORNE-MENDEL/FEMALE, Route: LUNG IMPLANT, Dose: 0, 0.1, 0.3, 1.0 MG IN BEESWAX/TRIOCTANOIN (STUDY DURATION: LIFETIME), Dose: 0, 0.1, 0.3, 1.0 MG IN BEESWAX/TRIOCTANOIN (STUDY DURATION: LIFETIME), Tumor Site: Type of Lesion: LUNG: EPIDERMOID CARCINOMA, PLEOMORPHIC SARCOMA) was “active; positive” and the carcinogen call (Species: RAT, Strain/Sex: SPRAGUE-DAWLEY/FEMALE, Route: INJECTION, Dose: 0, 0.25, 1 UMOL PER MAMMARY GLAND (STUDY DURATION: 24 WK), Dose: 0, 0.25, 1 UMOL PER MAMMARY GLAND (STUDY DURATION: 24 WK), Tumor Site: Type of Lesion: MAMMARY GLAND: TUMOR) was “active; positive”. The carcinogen call (Species: RAT, Strain/Sex: SPRAGUE-DAWLEY/FEMALE, Route: INTRAVENOUS, Dose: 39 MG/KG, SINGLE DOSE, Tumor Site: Type of Lesion: MAMMARY GLAND: CARCINOMA) was “active; positive”, the carcinogen call (Species: RAT, Strain/Sex: SPRAGUE-DAWLEY/FEMALE, Route: INTRAVENOUS, Tumor Site: Type of Lesion: MAMMARY GLAND: CARCINOMA) was “active; positive” and the carcinogen call (Species: RAT, Strain/Sex: STRAIN-CD/FEMALE, Route: GAVAGE, Dose: 0, 50 UMOL IN 0.5 ML TRIOCTANOIN 1/WK FOR 8 WK (STUDY DURATION: 49 WK), Tumor Site: Type of Lesion: MAMMARY GLAND: FIBROADENOMA, DESMOPLASTIC ADENOMA, ADENOCARCINOMA) was “active; positive”.
